Source: patent publication US20060263827A1, “Novel endothelial cells, antibodies directed against said cells and use thereof, in particular for screening angiogenesis inhibiting substances” (priority 2002, published 2006)
“Also recorded” adds a separate entry of the source.

Columns and labels:
[1] = tested on: F/V cells (angiogenic endothelial cells of foetal bovine aorta); assay: Proliferation test on F/V cells; format: cell-based; conditions: for sensitivity of F/V cells compared with F/0 cells to anti-angiogenic agent: F/V versus F/0 cells, seeded at low density (5000), FIG. 4
Experimental: (§1) FIG. 5A relates in particular to the action of the type 3 antibodies on the proliferation of the F/V cells of angiogenic phenotype. FIG. 5B relates to the action of the type 3 antibodies on the proliferation of the F/O non-angiogenic cells. The test carried out is a proliferation test as described in the examples. The cells are cultured in DMEM supplemented with 5% newborn calf serum to which is added either no angiogenic factor (condition 0), or 2 ng/ml VEGF (condition VEGF), or 2 ng/ml FGF-2 (condition FGF-2). The antibody is added at the same time as the angiogenic factors, at variable concentrations (0, 1, 3 or 7 μg/ml).
(§2) The test carried out is a proliferation test as described in the examples. The cells are cultured in DMEM supplemented with 5% newborn calf serum. The antibody is added at the same time as the angiogenic factors, at variable concentrations (0, 50 or 100 μg/ml).
(§3) 12-well plates are seeded at a low density (5000 to 10,000 cells/well), in DMEM medium with 8% serum. After 24 hours, the proliferation of the cells is stimulated by the addition of a range of growth factor, anti-angiogenic medicaments (methoxyestradiol, fumagillin, SU5416 targeted on VEGF-R2—Plouët et al., 2001) or antibodies of the present invention. The cells are restimulated after 48 hours and then after a total of five days in culture the cells are trypsinated and counted with a Coulter counter.
The F/0 and F/V cells are seeded at a low density (5000) as indicated and three drugs are inoculated separately, 2 of which are of unknown mechanism (Methoxyestradiol-ME-2 and fumagillin—FUMA) and 1 interfering with VEGF-R2 (SU 5416) inhibiting kinase activity.

[2] = tested on: F/0 cells (non-angiogenic endothelial cells of foetal bovine aorta); assay: Proliferation test on F/0 cells; format: cell-based
Experimental: as §1, §2
as §3, with “counter. […]” for “counter.”

| Molecule | sensitivity of F/V cells compared with F/0 cells to anti-angiogenic agent [1] | ED 50 of mitogenic action ([1]; F/V cells) [ng/mL] | proliferation under the action of VEGF (in words) [2] |
| --- | --- | --- | --- |
| CO[C@@H]1[C@H](OC(=O)/C=C/C=C/C=C/C=C/C(=O)O)CC[C@]2(CO2)[C@H]1[C@@]1(C)O[C@@H]1CC=C(C)C [fumagillin] | identically sensitive; also recorded: equally sensitive |  |  |
| COc1cc2c(cc1O)CC[C@@H]1[C@@H]2CC[C@]2(C)[C@@H](O)CC[C@@H]12 [methoxyestradiol] | identically sensitive; also recorded: equally sensitive |  |  |
| Cc1cc(C)c(/C=C2\C(=O)Nc3ccccc32)[nH]1 [SU 5416] | much more sensitive |  |  |
| VEGF |  | 0.3 | do not proliferate |
